In patent publication US9440957B2, “Compounds and compositions for modulating EGFR Activity” (Novartis AG, priority 2012, dated 2016):

Tests used:
Format in all cases: cell-based
HEKn (EGFR WT) = HEKn (EGFR WT) (Homo sapiens, UniProt P00533); assay: EGFR target modulation in HEKn (EGFR-WT) cell line (phospho-EGFR Y1173 ELISA); details: value outside parentheses
Procedure, shortened: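 Read-out was Y1173 phosphorylation, measured by chemiluminescent ELISA with anti-EGFR capture of lysates. HEKn keratinocytes (wild-type EGFR) were treated with compound for 3 h.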

H3255 (EGFR L858R) = H3255 (EGFR L858R) (Homo sapiens, UniProt P00533, L858R); assay: EGFR target modulation in H3255 cell line (phospho-EGFR Y1173 ELISA)
Procedure, shortened: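 pY1173 was measured by sandwich ELISA with anti-EGFR capture and chemiluminescent read-out. Before lysis, each cell line (HCC827, H1975, H3255) was treated with compound for 3 hours. IC50 derived by non-linear fit, normalised to EGF-stimulated controls as maximum.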

HaCaT (EGFR WT) = HaCaT (EGFR WT) (Homo sapiens, UniProt P00533); assay: EGFR target modulation in HaCaT (EGFR-WT) cell line (phospho-EGFR Y1173 ELISA); details: value in parentheses
Procedure, shortened: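 Read-out was chemiluminescent ELISA: lysates were captured overnight at 4 °C by anti-EGFR antibody and probed with an HRP secondary. Before lysis, wild-type-EGFR HaCaT cells received compound for 3 h plus EGF stimulation. EGF-only cells defined maximal signal, and IC50 values were obtained by non-linear curve fitting.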

Sequence of HaCaT (EGFR WT) (P00533 25-1210): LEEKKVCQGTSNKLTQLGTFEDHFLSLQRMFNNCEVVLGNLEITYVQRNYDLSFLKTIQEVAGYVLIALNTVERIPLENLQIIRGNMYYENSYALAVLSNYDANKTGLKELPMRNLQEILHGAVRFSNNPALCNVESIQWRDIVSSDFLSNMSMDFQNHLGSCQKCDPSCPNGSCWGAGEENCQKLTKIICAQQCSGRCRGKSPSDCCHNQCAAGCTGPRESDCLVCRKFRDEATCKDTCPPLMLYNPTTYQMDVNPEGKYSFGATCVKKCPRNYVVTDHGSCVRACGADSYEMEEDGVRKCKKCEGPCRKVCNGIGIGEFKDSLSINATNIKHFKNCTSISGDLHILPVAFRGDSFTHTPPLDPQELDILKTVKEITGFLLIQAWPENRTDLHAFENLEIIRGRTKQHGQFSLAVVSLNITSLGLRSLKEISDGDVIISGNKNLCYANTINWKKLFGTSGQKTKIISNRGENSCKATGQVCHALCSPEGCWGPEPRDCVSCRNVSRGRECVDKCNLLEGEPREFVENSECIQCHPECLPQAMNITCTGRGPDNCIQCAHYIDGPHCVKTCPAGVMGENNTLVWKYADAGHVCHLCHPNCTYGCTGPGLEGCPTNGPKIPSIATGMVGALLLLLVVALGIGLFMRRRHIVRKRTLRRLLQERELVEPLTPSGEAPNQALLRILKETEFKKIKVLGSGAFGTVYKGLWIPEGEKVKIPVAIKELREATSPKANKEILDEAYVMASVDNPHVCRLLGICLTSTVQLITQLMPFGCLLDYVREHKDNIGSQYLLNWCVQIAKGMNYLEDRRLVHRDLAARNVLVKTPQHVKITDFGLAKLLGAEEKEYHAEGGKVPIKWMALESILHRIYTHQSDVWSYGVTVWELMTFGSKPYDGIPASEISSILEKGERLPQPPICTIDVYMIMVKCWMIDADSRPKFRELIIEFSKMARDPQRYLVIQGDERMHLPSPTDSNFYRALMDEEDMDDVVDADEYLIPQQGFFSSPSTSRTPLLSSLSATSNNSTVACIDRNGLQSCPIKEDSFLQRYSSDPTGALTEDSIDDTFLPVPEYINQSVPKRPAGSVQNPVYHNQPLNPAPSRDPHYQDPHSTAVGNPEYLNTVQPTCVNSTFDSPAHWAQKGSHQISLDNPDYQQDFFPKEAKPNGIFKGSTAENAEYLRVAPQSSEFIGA
Sequence of HEKn (EGFR WT) (P00533 25-1210): as above
Sequence of H3255 (EGFR L858R) (P00533 25-1210 L858R): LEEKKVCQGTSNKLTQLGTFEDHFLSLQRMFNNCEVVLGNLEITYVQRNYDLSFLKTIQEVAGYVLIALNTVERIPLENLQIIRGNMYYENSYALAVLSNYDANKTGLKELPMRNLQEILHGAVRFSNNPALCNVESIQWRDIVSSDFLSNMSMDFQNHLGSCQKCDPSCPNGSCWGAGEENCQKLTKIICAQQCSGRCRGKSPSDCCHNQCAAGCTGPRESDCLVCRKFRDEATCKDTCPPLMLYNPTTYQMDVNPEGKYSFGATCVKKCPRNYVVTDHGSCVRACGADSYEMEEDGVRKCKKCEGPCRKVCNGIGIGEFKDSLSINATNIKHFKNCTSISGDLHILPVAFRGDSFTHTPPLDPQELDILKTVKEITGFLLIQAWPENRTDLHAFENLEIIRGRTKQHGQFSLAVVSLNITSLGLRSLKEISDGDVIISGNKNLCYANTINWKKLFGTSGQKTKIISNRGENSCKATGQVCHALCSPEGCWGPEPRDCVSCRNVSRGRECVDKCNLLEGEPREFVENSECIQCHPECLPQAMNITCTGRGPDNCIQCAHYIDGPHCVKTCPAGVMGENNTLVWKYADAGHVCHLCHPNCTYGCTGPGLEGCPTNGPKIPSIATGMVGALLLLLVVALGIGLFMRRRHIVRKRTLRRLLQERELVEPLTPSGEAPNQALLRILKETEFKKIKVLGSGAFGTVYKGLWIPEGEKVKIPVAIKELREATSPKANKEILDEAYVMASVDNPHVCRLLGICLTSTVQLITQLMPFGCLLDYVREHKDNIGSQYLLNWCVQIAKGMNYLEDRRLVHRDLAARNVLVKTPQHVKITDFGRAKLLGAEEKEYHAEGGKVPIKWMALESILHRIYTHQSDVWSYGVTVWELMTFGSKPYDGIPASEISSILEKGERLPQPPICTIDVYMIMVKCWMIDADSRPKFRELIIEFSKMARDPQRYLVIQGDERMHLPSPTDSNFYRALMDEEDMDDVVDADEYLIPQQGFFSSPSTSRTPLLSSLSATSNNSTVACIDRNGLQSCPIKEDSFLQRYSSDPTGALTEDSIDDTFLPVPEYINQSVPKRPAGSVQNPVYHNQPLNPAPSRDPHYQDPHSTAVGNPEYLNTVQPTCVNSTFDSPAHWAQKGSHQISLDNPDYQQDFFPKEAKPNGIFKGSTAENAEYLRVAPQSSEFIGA

IC50 (HEKn (EGFR WT))	IC50 (H3255 (EGFR L858R))	IC50 (HaCaT (EGFR WT))	SMILES
129 nM	3 nM	59 nM	C=CC(=O)N1CCCC[C@@H](n2c(NC(=O)c3ccnc(C)c3)nc3cc(CN4CC[C@@H](OC)C4)cc(C)c32)C1 [Example 17-150]
79 nM	2 nM	44 nM	C=CC(=O)N1CCCC[C@@H](n2c(NC(=O)c3ccnc(C)c3)nc3cc(CN4CC[C@H](F)C4)cc(C)c32)C1 [Example 17-147]
77 nM	2 nM	52 nM	C=CC(=O)N1CCCC[C@@H](n2c(NC(=O)c3ccnc(C)c3)nc3cc(CN4CC[C@@H](F)C4)cc(C)c32)C1 [Example 17-148]
112 nM	2 nM	46 nM	C=CC(=O)N1CCCC[C@@H](n2c(NC(=O)c3ccnc(C)c3)nc3cc(CN4CC(F)C4)cc(C)c32)C1 [Example 17-152]
76 nM	2 nM	48 nM	C=CC(=O)N1CCCC[C@@H](n2c(NC(=O)c3ccnc(C)c3)nc3cc(CN4CC[C@H](OC)C4)cc(C)c32)C1 [Example 17-149]
79 nM	2 nM	38 nM	C=CC(=O)N1CCCC[C@@H](n2c(NC(=O)c3ccnc(C)c3)nc3cc(CN4CC(OC)C4)cc(C)c32)C1 [Example 17-154]
